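Where inhibition never reached the appropriate level, the endpoint shown equals the highest concentration tested. Otherwise, values were interpolated linearly from a five-concentration, 48-hour dose response in 96-well plates. TGI is the concentration that stops growth completely.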
Key:
Assay in all cases: NCI tumour cell line growth inhibition, 48 h
SK-MEL-5 melanoma = test system: SK-MEL-5 melanoma
UO-31 renal = test system: UO-31 renal
UACC-62 melanoma = test system: UACC-62 melanoma
SF-295 CNS = test system: SF-295 CNS
NCI-H23 lung = test system: NCI-H23 lung
MALME-3M melanoma = test system: MALME-3M melanoma
OVCAR-5 ovarian = test system: OVCAR-5 ovarian
IGROV1 ovarian = test system: IGROV1 ovarian
SK-MEL-28 melanoma = test system: SK-MEL-28 melanoma
SNB-19 CNS = test system: SNB-19 CNS
A549 NSCLC = test system: A549 NSCLC
LOX IMVI melanoma = test system: LOX IMVI melanoma
LXFL 529 NSCLC = test system: LXFL 529 NSCLC
CCRF-CEM leukemia = test system: CCRF-CEM leukemia
EKVX NSCLC = test system: EKVX NSCLC
SF-268 CNS = test system: SF-268 CNS
HL-60(TB) leukemia = test system: HL-60(TB) leukemia
UACC-257 melanoma = test system: UACC-257 melanoma
SNB-78 CNS = test system: SNB-78 CNS
HOP-62 NSCLC = test system: HOP-62 NSCLC
HCT-116 colon = test system: HCT-116 colon
OVCAR-3 ovarian = test system: OVCAR-3 ovarian
XF 498 CNS = test system: XF 498 CNS
COLO 205 colon = test system: COLO 205 colon
KM12 colon = test system: KM12 colon
NCI-H226 lung = test system: NCI-H226 lung
SK-MEL-2 melanoma = test system: SK-MEL-2 melanoma
SNB-75 CNS = test system: SNB-75 CNS
MOLT-4 leukemia = test system: MOLT-4 leukemia
RXF-631 renal = test system: RXF-631 renal
U251 CNS = test system: U251 CNS
DLD-1 colon = test system: DLD-1 colon
M19-MEL melanoma = test system: M19-MEL melanoma
NCI-H522 lung = test system: NCI-H522 lung
DMS 273 small cell lung = test system: DMS 273 small cell lung
TK-10 renal = test system: TK-10 renal
RPMI-8226 leukemia = test system: RPMI-8226 leukemia
HCT-15 colon = test system: HCT-15 colon
786-0 renal = test system: 786-0 renal
OVCAR-4 ovarian = test system: OVCAR-4 ovarian
A498 renal = test system: A498 renal
K-562 leukemia = test system: K-562 leukemia
SK-OV-3 ovarian = test system: SK-OV-3 ovarian
CAKI-1 renal = test system: CAKI-1 renal
SF-539 CNS = test system: SF-539 CNS
SN12C renal = test system: SN12C renal
HOP-18 NSCLC = test system: HOP-18 NSCLC
HT29 colon = test system: HT29 colon
OVCAR-8 ovarian = test system: OVCAR-8 ovarian
HCC-2998 colon = test system: HCC-2998 colon
SW-620 colon = test system: SW-620 colon
KM20L2 colon = test system: KM20L2 colon
ACHN renal = test system: ACHN renal
DMS 114 small cell lung = test system: DMS 114 small cell lung
NCI-H460 lung = test system: NCI-H460 lung
M14 melanoma = test system: M14 melanoma
SR leukemia = test system: SR leukemia
HOP-92 NSCLC = test system: HOP-92 NSCLC

## O=c1ccn(/C=C/C(O)C(O)CO)c(=O)[nH]1 (stereo not given)
SK-MEL-5 melanoma
  TGI: > 100 µM
UO-31 renal
  TGI: > 100 µM
UACC-62 melanoma
  TGI: > 100 µM
SF-295 CNS
  TGI: > 100 µM
NCI-H23 lung
  TGI: > 100 µM
MALME-3M melanoma
  TGI: > 100 µM
OVCAR-5 ovarian
  TGI: > 100 µM
IGROV1 ovarian
  TGI: > 100 µM
SK-MEL-28 melanoma
  TGI: > 100 µM
SNB-19 CNS
  TGI: > 100 µM
A549 NSCLC
  TGI: > 100 µM
LOX IMVI melanoma
  TGI: > 100 µM
LXFL 529 NSCLC
  TGI: > 100 µM
CCRF-CEM leukemia
  TGI: > 100 µM
EKVX NSCLC
  TGI: > 100 µM
SF-268 CNS
  TGI: > 100 µM
HL-60(TB) leukemia
  TGI: > 100 µM
UACC-257 melanoma
  TGI: > 100 µM
SNB-78 CNS
  TGI: > 100 µM
HOP-62 NSCLC
  TGI: > 100 µM
HCT-116 colon
  TGI: > 100 µM
OVCAR-3 ovarian
  TGI: > 100 µM
XF 498 CNS
  TGI: > 100 µM
COLO 205 colon
  TGI: > 100 µM
KM12 colon
  TGI: 40.9 µM
NCI-H226 lung
  TGI: > 100 µM
SK-MEL-2 melanoma
  TGI: > 100 µM
SNB-75 CNS
  TGI: > 100 µM
MOLT-4 leukemia
  TGI: > 100 µM
RXF-631 renal
  TGI: > 100 µM
U251 CNS
  TGI: > 100 µM
DLD-1 colon
  TGI: > 100 µM
M19-MEL melanoma
  TGI: > 100 µM
NCI-H522 lung
  TGI: > 100 µM
DMS 273 small cell lung
  TGI: > 100 µM
TK-10 renal
  TGI: > 100 µM
RPMI-8226 leukemia
  TGI: > 100 µM
HCT-15 colon
  TGI: > 100 µM
786-0 renal
  TGI: > 100 µM
OVCAR-4 ovarian
  TGI: > 100 µM
A498 renal
  TGI: > 100 µM
K-562 leukemia
  TGI: > 100 µM
SK-OV-3 ovarian
  TGI: > 100 µM
CAKI-1 renal
  TGI: > 100 µM
SF-539 CNS
  TGI: > 100 µM
SN12C renal
  TGI: > 100 µM
HOP-18 NSCLC
  TGI: > 100 µM
HT29 colon
  TGI: > 100 µM
OVCAR-8 ovarian
  TGI: > 100 µM
HCC-2998 colon
  TGI: > 100 µM
SW-620 colon
  TGI: > 100 µM
KM20L2 colon
  TGI: > 100 µM
ACHN renal
  TGI: > 100 µM
DMS 114 small cell lung
  TGI: > 100 µM

## COc1ccc(/C=C/c2cc(OC)c(OCc3ccccc3)c(OC)c2)cc1
UO-31 renal
  TGI: > 100 µM
UACC-62 melanoma
  TGI: > 100 µM
NCI-H23 lung
  TGI: > 100 µM
MALME-3M melanoma
  TGI: > 100 µM
OVCAR-5 ovarian
  TGI: 94.5 µM
NCI-H460 lung
  TGI: > 100 µM
IGROV1 ovarian
  TGI: > 100 µM
SK-MEL-28 melanoma
  TGI: > 100 µM
SNB-19 CNS
  TGI: > 100 µM
A549 NSCLC
  TGI: > 100 µM
LXFL 529 NSCLC
  TGI: > 100 µM
CCRF-CEM leukemia
  TGI: > 100 µM
EKVX NSCLC
  TGI: > 100 µM
M14 melanoma
  TGI: > 100 µM
SF-268 CNS
  TGI: > 100 µM
SR leukemia
  TGI: > 100 µM
UACC-257 melanoma
  TGI: > 100 µM
SNB-78 CNS
  TGI: > 100 µM
HOP-62 NSCLC
  TGI: > 100 µM
HCT-116 colon
  TGI: > 100 µM
OVCAR-3 ovarian
  TGI: > 100 µM
HOP-92 NSCLC
  TGI: > 100 µM
XF 498 CNS
  TGI: > 100 µM
COLO 205 colon
  TGI: > 100 µM
KM12 colon
  TGI: > 100 µM
NCI-H226 lung
  TGI: > 100 µM
SK-MEL-2 melanoma
  TGI: > 100 µM
SNB-75 CNS
  TGI: > 100 µM
MOLT-4 leukemia
  TGI: > 100 µM
RXF-631 renal
  TGI: > 100 µM
U251 CNS
  TGI: > 100 µM
DLD-1 colon
  TGI: > 100 µM
M19-MEL melanoma
  TGI: > 100 µM
NCI-H522 lung
  TGI: > 100 µM
DMS 273 small cell lung
  TGI: > 100 µM
RPMI-8226 leukemia
  TGI: > 100 µM
786-0 renal
  TGI: > 100 µM
OVCAR-4 ovarian
  TGI: > 100 µM
A498 renal
  TGI: > 100 µM
K-562 leukemia
  TGI: > 100 µM
SK-OV-3 ovarian
  TGI: > 100 µM
CAKI-1 renal
  TGI: > 100 µM
SF-539 CNS
  TGI: > 100 µM
SN12C renal
  TGI: > 100 µM
HT29 colon
  TGI: > 100 µM
OVCAR-8 ovarian
  TGI: > 100 µM
HCC-2998 colon
  TGI: > 100 µM
SW-620 colon
  TGI: > 100 µM
KM20L2 colon
  TGI: > 100 µM
ACHN renal
  TGI: > 100 µM
DMS 114 small cell lung
  TGI: > 100 µM

Reference: PubChem BioAssay (NCI)
